“Also recorded” adds a separate entry of the source. Read-outs that look alike come from different tables or passages of the source.

Here are results for eight molecules from paper PMC10470909, “cis-Decalin-containing tetramic acids as inhibitors of insect steroidogenic glutathione S-transferase Noppera-bo” (PLOS ONE, 2023).

A short description of series [1]: In vitro cytotoxicity, HeLa. It is filed as cell-based, human. As to conditions: human, HeLa cells (human cervical epidermoid carcinoma cell line). As for the experimental part: (§1) In vitro cytotoxicity and antimicrobial assays were conducted as previously reported.
Series [2] is described as follows: In vitro cytotoxicity, HL-60. It is filed as cell-based. To be noted: human, HL-60 cells (human promyelocytic leukemia cell line). As to the method: as §1
Series [3] in a line: In vitro cytotoxicity, src^ts-NRK. It is filed as cell-based, rat. As to conditions: rat; src^ts-NRK cells. As for the experimental part:
as §1

For series [4], the system named is Staphylococcus aureus 209. Description: Antimicrobial assay, S. aureus. The series is classed as cell-based.
Another series has as its system Escherichia coli HO141. Description: Antimicrobial assay, E. coli. It is filed as cell-based.
Series [5] relates to Aspergillus fumigatus Af293. Briefly: Antimicrobial assay, A. fumigatus. It is filed as cell-based.
Series [6] concerns Pyricularia oryzae kita-1. Description: microbe, parasite or virus in culture. It is filed as cell-based. As to conditions: for IC50: Pyricularia oryzae, KITA1, read-out: Antimicrobial activity (IC50, μM) Po.
The subject of the next series is Candida albicans JCM1542. Description: Antimicrobial assay, C. albicans. The series is classed as cell-based.
Series [7] deals with Plasmodium falciparum 3D7. Description: Antimalarial assay, P. falciparum. The series is classed as cell-based.
Another series relates to HIV-1 integrase. More on the design: method as in earlier work. To be noted: cited from earlier work.
Series [8] concerns HeLa, human cervical epidermoid carcinoma cell line. Briefly: In vitro cytotoxicity, HeLa. As to conditions: HeLa cells. The series is classed as cell-based. As for the experimental part:
as §1

For series [9], the system named is src^ts-NRK, normal rat kidney cells infected with ts25. Description: In vitro cytotoxicity, src^ts-NRK. It is filed as cell-based. As to the method: as §1
In series [10] the test system is mitochondrial respiration in HeLa cells. Description: Measurement of mitochondrial respiration (OCR/ECAR, Seahorse XFe96 extracellular flux analyzer). To be noted: 6 min after sample treatment.
Protocol: Changes in oxygen consumption rate (OCR) and extracellular acidification rate (ECAR) were measured using a Seahorse XFe96 analyzer (Agilent, CA, USA).
To confirm this, the effect of 1 on energy metabolism was evaluated using an extracellular flux analyzer, which can simultaneously measure two metabolic properties: oxygen consumption rate (OCR) for an indicative of OXPHOS and extracellular acidification rate (ECAR) for that of glycolysis [20].
Percentage changes in OCR and ECAR (relative to their respective baseline values) induced by test compounds were calculated from S14 Fig. Each data point represents the mean ± standard deviation value at 6 min after sample treatment (n = 3). Note that decreasing OCR and increasing ECAR is a typical phenotype characteristic to mitochondrial respiration inhibitors [20].
Real-time measurements of the OCR and ECAR in HeLa cells were performed after treating the cells with different concentrations of the test samples. To perform the Seahorse XF Cell Mito Stress Test, the cells were treated with oligomycin A (OMA, 1 μM), FCCP (0.125 μM), and rotenone/antimycin A (R/A, 1 μM each) at the indicated times. Data are mean ± s.d. (n = 3 technical replicates) from one representative experiment out of three independent experiments.
The next series is described as follows: Solubility in solvents. The series is classed as physicochemical. To be noted: hexane, CHCl3, EtOAc, acetone, MeOH, MeCN, DMSO, or H2O. As to the method:
Its molecular formula was determined as C24H31NO6 using HRESITOFMS.

Where [11] appears, read: Staphylococcus aureus, 209, read-out: Antimicrobial activity (IC50, μM) Sa.
Where [12] appears, read: Escherichia coli, HO141, read-out: Antimicrobial activity (IC50, μM) Ec.
Setting [13] is: Aspergillus fumigatus, AF293, read-out: Antimicrobial activity (IC50, μM) Af.
Where [14] appears, read: Candida albicans, JCM1542, read-out: Antimicrobial activity (IC50, μM) Ca.
Where [15] appears, read: Plasmodium falciparum, 3D7, read-out: Antimicrobial activity (IC50, μM) Pf.
Where [16] appears, read: Staphylococcus aureus 209, read-out: Antimicrobial activity (IC50, μM) Sa.
Where [17] appears, read: Escherichia coli HO141, read-out: Antimicrobial activity (IC50, μM) Ec.
Where [18] appears, read: Aspergillus fumigatus Af293, read-out: Antimicrobial activity (IC50, μM) Af.
[19] abbreviates: Candida albicans JCM1542, read-out: Antimicrobial activity (IC50, μM) Ca.
Where [20] appears, read: Plasmodium falciparum 3D7, read-out: Antimicrobial activity (IC50, μM) Pf.

As usually defined, the IC50 is the point on the concentration scale where inhibition reaches its midpoint. With `C/C=C/C=C/[C@H]1C(C)=C[C@H]2C[C@@H](C)CC[C@@H]2[C@@]1(C)C(=O)C1=C(O)[C@@H](CO)N(C)C1=O` [Compound 2, phomasetin], the IC50 was determined as 6.1 µM in [1]; 3.4 µM in series [2]; 11 µM in series [3]; 0.14 µM in series [4] (setting [11]); 1.3 µM in the series with Escherichia coli HO141 (setting [12]); 21 µM in series [5] (setting [13]). Besides, the IC50 in series [6] turned out to be 0.044 µM; with Candida albicans JCM1542 (setting [14]), 21 µM; in [7] (setting [15]), 1.8 µM. Also, the “HIV-1 integrase inhibitory activity (in words)” value in the series on HIV-1 integrase is on record as “inhibit HIV-1 integrase activity approximately equally”.

As to `C/C=C/C=C/[C@@H]1C(C)=C[C@@H]2C[C@@H](C)CC[C@@H]2[C@@]1(C)C(=O)C1=C(O)[C@@H](CO)NC1=O` [Compound 4, N-demethyl-cis-phomasetin], the IC50 is above 75 µM in series [1]; 22 µM in [2]; above 75 µM in series [3]; 6 µM in series [4] (setting [11]); 1.5 µM with Escherichia coli HO141 (setting [12]); 58 µM in [5] (setting [13]). In addition, the IC50 in [6] is 2 µM; in the series on Candida albicans JCM1542 (setting [14]), 9 µM; in series [7] (setting [15]) it was 13 µM. The “cytotoxicity against HeLa (in words)” value in [8] was “no cytotoxicity”. In [9], the “cytotoxicity against src^ts-NRK (in words)” value is on record as “no cytotoxicity”.

As for `CC1=C[C@H]2C[C@@H](C)CC[C@@H]2[C@@](C)(C(=O)C2=C(O)[C@@H](CO)N(C)C2=O)[C@H]1/C=C/C=C/CO` [Compound 7], the IC50 in [1] is 28 µM; in series [2] it was 22 µM; in series [4] (setting [11]), 1.4 µM; in the series on Escherichia coli HO141 (setting [12]) it was 21 µM; in series [5] (setting [13]), above 70 µM; in series [6] it was 12 µM. The values for the concentration for half-maximal inhibition (IC50) (with Candida albicans JCM1542 (setting [14]); in series [7] (setting [15])) were above 70 µM and 4.7 µM, respectively.

Turning to `C/C=C/[C@@H]1C=C[C@@H]2C[C@H](C)CC[C@H]2[C@]1(C)C(=O)C1=C(O)[C@H](CO)N(C)C1=O` [Compound 1, equisetin], the IC50 came out at 35 µM in series [1]; 12 µM in series [2]; 20 µM in series [3]; 1.4 µM in series [4] (setting [16]); 13 µM in the series with Escherichia coli HO141 (setting [17]); 29 µM in series [5] (setting [18]). In addition, the IC50 in series [6] is 0.15 µM; in the series with Candida albicans JCM1542 (setting [19]), 29 µM; in series [7] (setting [20]), 12 µM. For the same molecule, the “HIV-1 integrase inhibitory activity (in words)” value in the series on HIV-1 integrase is given as “inhibit HIV-1 integrase activity approximately equally”. In series [10], the “change in extracellular acidification rate (ECAR)” value is reported as “increase in ECAR”. The “change in oxygen consumption rate (OCR)” value in series [10] is “decrease in OCR”.

For the molecule `CC1=C[C@@H]2C[C@@H](C)CC[C@@H]2[C@@](C)(C(=O)C2=C(O)[C@@H](CO)NC2=O)[C@@H]1/C=C/C=C/C(=O)O` [Compound 8], the IC50 in series [1] is above 70 µM; in series [2], above 70 µM; in series [3] it was above 70 µM; in series [4] (setting [11]), 63 µM; in the series on Escherichia coli HO141 (setting [12]), 28 µM; in [5] (setting [13]) it was above 70 µM. Moreover, the IC50 in series [6] was above 70 µM; in the series with Candida albicans JCM1542 (setting [14]), above 70 µM; in [7] (setting [15]) it was 26 µM. The “solubility (in words)” value in “Solubility in solvents” is given as “not soluble in any solvent; also recorded: too low”.

Turning to `C/C=C/C=C/[C@@H]1C(C)=C[C@@H]2C[C@@H](C)CC[C@H]2[C@]1(C)C(=O)C1=C(O)C(CO)NC1=O` (some centres unmarked) [Compound 6], the IC50 in series [1] is above 70 µM; in series [2] it was 12 µM; in [3], above 70 µM; in series [4] (setting [11]), 3.8 µM; with Escherichia coli HO141 (setting [12]) it was above 70 µM; in series [5] (setting [13]), above 70 µM. Also, the IC50 in [6] was determined as 5.5 µM; in the series with Candida albicans JCM1542 (setting [14]), 65 µM; in [7] (setting [15]), 23 µM.

On to `C/C=C/[C@H]1C=C[C@H]2C[C@H](C)CC[C@H]2[C@]1(C)C(=O)C1=C(O)[C@H](CO)N(C)C1=O` [Compound 3, cis-equisetin], for which the IC50 is 46 µM in series [1]; 14 µM in series [2]; 35 µM in [3]; 5.6 µM in series [4] (setting [16]); 20 µM with Escherichia coli HO141 (setting [17]); 40 µM in [5] (setting [18]). For the same molecule, the values for the IC50 (in series [6]; in the series with Candida albicans JCM1542 (setting [19]); in series [7] (setting [20])) were 0.46 µM, 40 µM and 13 µM, respectively. Also, the “fold lower activity compared with that of 1, S. aureus” value in [4] (growth inhibitory activity against S. aureus, relative to 1) is listed as 4 fold. The “fold lower activity compared with that of 1, P. oryzae” value in series [6] (growth inhibitory activity against P. oryzae, relative to 1) is recorded as 3 fold.

Take `C/C=C/C=C/[C@H]1C(C)=C[C@H]2C[C@@H](C)CC[C@@H]2[C@@]1(C)C(=O)C1=C(O)[C@@H](CO)NC1=O` [Compound 5, N-demethylphomasetin]: the IC50 in series [1] was 40 µM; in series [2] it was 11 µM; in series [3] it was 63 µM; in [4] (setting [11]), 0.2 µM; with Escherichia coli HO141 (setting [12]), 2.5 µM; in [5] (setting [13]), 9.8 µM. For the same molecule, the figures for the IC50 (in [6]; in the series with Candida albicans JCM1542 (setting [14]); in [7] (setting [15])) were 1.3 µM, 3.8 µM and 4.8 µM, respectively.
